Ki data for ten molecules are collected here from US8778958B2, “Synthesis of metabolically stable agents for alcohol and drug abuse” (priority 2008, dated 2014).

Holding throughout (test): biochemical
What all share (format): binding

The target in one experiment is T1, μ-opioid receptor (Homo sapiens, UniProt P35372).
T1 construct: expressed in transfected cells; host or cells: CHO cells

The target in another experiment is T2, δ-opioid receptor (Homo sapiens, UniProt P41143).
T2 construct: expressed in transfected cells; host or cells: CHO cells
Conditions: Table 1b, N-oxides.

A further experiment concerns the target T3, κ-opioid receptor (Homo sapiens, UniProt P41145).
T3 construct: expressed in transfected cells; host or cells: CHO cells
Conditions: read-out: Ki (nM) ± SEM, κ.

[1] abbreviates: Ki (nM) ± SEM, μ, Table 1b, N-oxides.

Where two headings read alike, the source gives them in different places.

T3 sequence (P41145 whole entry): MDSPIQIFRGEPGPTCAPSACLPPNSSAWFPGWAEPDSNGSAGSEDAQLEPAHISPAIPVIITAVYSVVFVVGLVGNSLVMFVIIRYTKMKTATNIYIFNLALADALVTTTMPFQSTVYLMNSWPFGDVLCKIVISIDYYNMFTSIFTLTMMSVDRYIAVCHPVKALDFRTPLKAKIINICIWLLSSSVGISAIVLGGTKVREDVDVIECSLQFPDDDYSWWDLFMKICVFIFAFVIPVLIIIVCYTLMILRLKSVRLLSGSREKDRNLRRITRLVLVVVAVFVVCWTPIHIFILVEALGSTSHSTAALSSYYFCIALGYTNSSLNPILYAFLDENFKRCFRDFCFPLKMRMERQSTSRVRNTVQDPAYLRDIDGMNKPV
T2 sequence (P41143 whole entry): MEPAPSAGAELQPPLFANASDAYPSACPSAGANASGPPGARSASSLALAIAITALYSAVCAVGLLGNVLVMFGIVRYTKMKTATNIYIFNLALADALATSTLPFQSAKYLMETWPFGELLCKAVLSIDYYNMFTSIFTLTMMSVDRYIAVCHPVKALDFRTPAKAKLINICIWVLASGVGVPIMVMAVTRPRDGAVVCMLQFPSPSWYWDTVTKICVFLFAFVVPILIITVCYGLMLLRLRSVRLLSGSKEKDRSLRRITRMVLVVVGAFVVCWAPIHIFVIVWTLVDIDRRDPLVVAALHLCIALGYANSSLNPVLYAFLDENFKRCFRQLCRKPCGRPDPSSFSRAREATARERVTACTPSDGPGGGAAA
T1 sequence (P35372 whole entry): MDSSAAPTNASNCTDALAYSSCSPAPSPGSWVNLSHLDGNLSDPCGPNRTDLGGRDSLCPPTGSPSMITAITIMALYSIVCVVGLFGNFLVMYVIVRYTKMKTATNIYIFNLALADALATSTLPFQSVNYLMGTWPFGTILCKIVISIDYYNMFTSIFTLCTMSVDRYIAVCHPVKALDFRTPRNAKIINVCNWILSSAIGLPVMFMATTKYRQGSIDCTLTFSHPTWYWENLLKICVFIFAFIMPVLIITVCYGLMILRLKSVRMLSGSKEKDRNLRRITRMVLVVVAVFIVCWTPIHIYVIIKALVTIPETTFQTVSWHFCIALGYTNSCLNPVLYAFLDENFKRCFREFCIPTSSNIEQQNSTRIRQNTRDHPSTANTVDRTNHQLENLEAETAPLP

In the case of `NC(=NO)c1cccc(C(=O)NC2CCC3(O)C4Cc5ccc(O)c6c5C3(CC[N+]4([O-])CC3CC3)C2O6)c1` (stereo not drawn) [Compound 52], the Ki at μ-opioid receptor (setting [1]) was found to be 114 ± 3.3 nM; on δ-opioid receptor (Ki (nM) ± SEM, δ), 1220 ± 45 nM; at κ-opioid receptor, 26 ± 1.81 nM.

“17-Cyclopropylmethyl-3,14-β-dihydroxy-4,5α-epoxy-6α-N-methyl-(3′,4′-dichloro)morphinan-N-oxide [Compound 51]”: the inhibition constant (Ki) on μ-opioid receptor (read-out: Ki (nM) ± SEM, μ) worked out at 7.3 ± 0.2 nM; on δ-opioid receptor (read-out: Ki (nM) ± SEM, δ), 120 ± 5 nM; at κ-opioid receptor (Table 1b, N-oxides), 2 ± 0.09 nM.

With `CN(C(=O)c1ccc(Cl)cc1)[C@H]1CC[C@@]2(O)[C@H]3Cc4ccc(O)c5c4[C@@]2(CC[N+]3([O-])CC2CC2)[C@H]1O5` (stereo partly drawn) [Compound 50, 17-Cyclopropylmethyl-3,14-β-dihydroxy-4,5α-epoxy-6α-N-methyl-[(4′-chloro)benzamido]morphinan-N-oxide], the inhibitory constant (Ki) was 369 ± 18 nM at μ-opioid receptor (read-out: Ki (nM) ± SEM, μ); 3330 ± 160 nM on δ-opioid receptor (read-out: Ki (nM) ± SEM, δ); 77 ± 8 nM on κ-opioid receptor (Table 1b, N-oxides).

With `COC(=O)c1ccc(C(=O)N[C@@H]2CC[C@@]3(O)[C@H]4Cc5ccc(O)c6c5[C@@]3(CC[N+]4([O-])CC3CC3)[C@H]2O6)cc1` (stereo partly drawn) [Compound 38, 17-Cyclopropylmethyl-3,14β-dihydroxy-4,5α-epoxy-6β-[(4′-carbomethoxy)benzamido]morphinan-N-oxide], the Ki at μ-opioid receptor (setting [1]) stood at 30 ± 2.1 nM; at δ-opioid receptor (Ki (nM) ± SEM, δ), 1390 ± 279 nM; on κ-opioid receptor, 51 ± 6 nM.

In the case of `O=C(N[C@@H]1CC[C@@]2(O)[C@H]3Cc4ccc(O)c5c4[C@@]2(CC[N+]3([O-])CC2CC2)[C@H]1O5)c1ccc(Cl)cc1` (stereo partly drawn) [Compound 35, 17-Cyclopropylmethyl-3,14β-dihydroxy-4,5α-epoxy-6β-[(4′-chloro)benzamido]morphinan-N-oxide], the Ki worked out at 4.7 ± 0.12 nM at μ-opioid receptor (setting [1]); 219 ± 7.97 nM at δ-opioid receptor (Ki (nM) ± SEM, δ); 1.8 ± 0.1 nM on κ-opioid receptor.

Take `CN(C)c1ccc(C(=O)N[C@@H]2CC[C@@]3(O)[C@H]4Cc5ccc(O)c6c5[C@@]3(CC[N+]4([O-])CC3CC3)[C@H]2O6)cc1` (stereo partly drawn) [Compound 24, 17-Cyclopropylmethyl-3,14β-dihydroxy-4,5α-epoxy-6β-[(4′-dimethylamino)benzamido]morphinan-N-oxide]: the inhibitory constant (Ki) worked out at 478 ± 23 nM at μ-opioid receptor (read-out: Ki (nM) ± SEM, μ); 5850 ± 560 nM on δ-opioid receptor (read-out: Ki (nM) ± SEM, δ); 227 ± 48.1 nM at κ-opioid receptor (Table 1b, N-oxides).

For the molecule “17-Cyclopropylmethyl-3,14β-dihydroxy-4,5α-epoxy-6α-(6-acetamido-2,3,4,6-tetra-O-benzyl-D-pyranose)morphinan-N-oxide [Compound 36]”, the inhibitory constant (Ki) was determined as 308 ± 13 nM on μ-opioid receptor (read-out: Ki (nM) ± SEM, μ); 1860 ± 144 nM at δ-opioid receptor (read-out: Ki (nM) ± SEM, δ); 18 ± 1 nM at κ-opioid receptor (Table 1b, N-oxides).

In the case of `O=C(N[C@@H]1CC[C@@]2(O)[C@H]3Cc4ccc(O)c5c4[C@@]2(CC[N+]3([O-])CC2CC2)[C@H]1O5)c1ccc([N+](=O)[O-])cc1` (stereo partly drawn) [Compound 40, 17-Cyclopropylmethyl-3,14β-dihydroxy-4,5α-epoxy-6β-[(4′-nitro)benzamido]morphinan-N-oxide], the inhibitory constant (Ki) on μ-opioid receptor (setting [1]) was found to be 38 ± 6.5 nM; on δ-opioid receptor (Ki (nM) ± SEM, δ) it was 590 ± 590 nM; at κ-opioid receptor, 6.7 ± 0.4 nM.

Turning to `O=C(NC1CCC2(O)C3Cc4ccc(O)c5c4C2(CC[N+]3([O-])CC2CC2)C1O5)c1ccc(Cl)c(F)c1` (stereo not drawn) [Compound 59, 17-Cyclopropylmethyl-3,14β-dihydroxy-4,5α-epoxy-6β-[(4′-chloro-3′-fluoro)benzamido]morphinan-N-oxide], the Ki at μ-opioid receptor (setting [1]) came to 14.1 ± 0.5 nM; on δ-opioid receptor (Ki (nM) ± SEM, δ) it was 390 ± 18 nM; at κ-opioid receptor, 2.5 ± 0.09 nM.

With `CN(C(=O)c1ccc(Br)cc1)[C@H]1CC[C@@]2(O)[C@H]3Cc4ccc(O)c5c4[C@@]2(CC[N+]3([O-])CC2CC2)[C@H]1O5` (stereo partly drawn) [Compound 26, 17-Cyclopropylmethyl-3,14β-dihydroxy-4,5α-epoxy-6α-N-methyl[(4′-bromo)benzamido]morphinan-N-oxide], the Ki at μ-opioid receptor (setting [1]) came out at 5.8 ± 0.21 nM; on δ-opioid receptor (Ki (nM) ± SEM, δ), 51 ± 5.8 nM; at κ-opioid receptor, 2.41 ± 0.19 nM.

Usually Ki stands for a measure of affinity in units of concentration, obtained from inhibition or displacement.
